Results: patent publication US20050256301A1 (The University of Queensland, priority 1998, published 2005)
Bridge positions count the residues as written; N and C are the ends. Ends that are not written are not given here. Peptide text beside a SMILES is read from it.

What was measured:
[1] = tested on: bovine adrenal chromaffin cells; assay type: cell-based
[2] = molecular target: endoproteinase Glu-C (Endo Glu-C) (Staphylococcus aureus, UniProt P0C1U8); conditions: 24 h, pH 8
[3] = in vitro; conditions: human, plasma

Chain of endoproteinase Glu-C (Endo Glu-C) (P0C1U8 69-336 limits assumed): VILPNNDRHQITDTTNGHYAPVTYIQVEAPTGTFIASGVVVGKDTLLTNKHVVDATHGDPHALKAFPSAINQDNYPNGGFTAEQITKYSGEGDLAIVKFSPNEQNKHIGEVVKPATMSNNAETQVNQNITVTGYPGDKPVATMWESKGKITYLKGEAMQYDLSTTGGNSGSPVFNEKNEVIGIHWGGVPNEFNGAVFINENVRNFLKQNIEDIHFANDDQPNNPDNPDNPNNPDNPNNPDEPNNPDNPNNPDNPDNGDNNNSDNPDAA

CC(C)C[C@@H]1NC(=O)[C@H](CC(N)=O)NC(=O)[C@H](CO)NC(=O)[C@H](Cc2c[nH]cn2)NC(=O)[C@H](CCC(=O)O)NC(=O)[C@H](CC(C)C)NC(=O)[C@H](Cc2c[nH]cn2)NC(=O)[C@@H]2CSSC[C@@H]3NC(=O)CNC(=O)CNC(=O)CNC(=O)[C@H](C)NC(=O)[C@H](C)NC(=O)CNC(=O)CNC(=O)[C@H](CSSC[C@H](NC3=O)C(=O)N[C@@H](CO)C(=O)N[C@@H](CC(N)=O)C(=O)N3CCC[C@H]3C(=O)N[C@@H](C(C)C)C(=O)N2)NC1=O [cMII-6] (cyclo(AAGGGCCSNPVCHLEHSNLCGG); disulfide 6-12, 7-20)
inhibition of nicotine-evoked catecholamine release, activity relative to linear MII [1]: comparable to linear MII | intact peptide remaining with Endo Glu-C [2]: remains entirely intact | remaining at 24 h [3]: ~90%

CC(C)C[C@@H]1NC(=O)[C@H](CC(N)=O)NC(=O)[C@H](CO)NC(=O)[C@H](Cc2c[nH]cn2)NC(=O)[C@H](CCC(=O)O)NC(=O)[C@H](CC(C)C)NC(=O)[C@H](Cc2c[nH]cn2)NC(=O)[C@@H]2CSSC[C@@H]3NC(=O)CNC(=O)CNC(=O)[C@H](C)NC(=O)[C@H](C)NC(=O)CNC(=O)[C@H](C)NC(=O)CNC(=O)CNC(=O)[C@H](CSSC[C@H](NC3=O)C(=O)N[C@@H](CO)C(=O)N[C@@H](CC(N)=O)C(=O)N3CCC[C@H]3C(=O)N[C@@H](C(C)C)C(=O)N2)NC1=O [cMII-7, Gly Cys Cys Ser Asn Pro Val Cys His Leu GIu His Ser Asn Leu Cys Gly Gly Ala Gly Ala Ala Gly] (cyclo(AAGGCCSNPVCHLEHSNLCGGAG); disulfide 5-11, 6-19)
inhibition of nicotine-evoked catecholamine release, activity relative to linear MII [1]: comparable to linear MII | remaining at 24 h [3]: ~90%

Gly Cys Cys Ser Asn Pro Val Cys His Leu Glu His Ser Asn Leu Cys Gly Gly Ala Ala Gly (GCCSNPVCHLEHSNLCGGAAG; also: cyclic, ring type and places not given here) [cMII-5, cyclic MII with five residue linker GGAAG]
inhibition of nicotine-evoked catecholamine release, activity relative to linear MII [1]: comparable to linear MII
